Species: Rattus norvegicus
Assay: DrugMatrix - Regimen: Daily Repeat
Format: toxicity, organism-based, Sprague-Dawley
Parameters: regimen Daily Repeat, gender Male, age 6-8 weeks
Conditions: in vivo, po, route oral GAVAGE, […]; for ABSOLUTE BASOPHIL / ABSOLUTE EOSINOPHIL / ABSOLUTE LYMPHOCYTE / ABSOLUTE MONOCYTE / ABSOLUTE SEGMENTED NEUTROPHIL / BASOPHIL / EOSINOPHIL / ERYTHROCYTE COUNT / HEMATOCRIT / HEMOGLOBIN / LEUKOCYTE COUNT / LYMPHOCYTE / MEAN CORPUSCULAR HEMOGLOBIN / MEAN CORPUSCULAR HEMOGLOBIN CONCENTRATION / MEAN CORPUSCULAR VOLUME / MONOCYTE / NEUTROPHIL / NUCLEATED RED BLOOD CELLS / PLATELET COUNT: tissue Blood; for ALANINE AMINOTRANSFERASE / ALBUMIN / ALKALINE PHOSPHATASE / ASPARTATE AMINOTRANSFERASE / BLOOD UREA NITROGEN / CARBON DIOXIDE / CHLORIDE / CHOLESTEROL / CREATINE PHOSPHOKINASE / CREATININE / GLUCOSE / LACTATE DEHYDROGENASE / LIPASE / PHOSPHORUS / POTASSIUM / SODIUM / TOTAL BILIRUBIN / TOTAL PROTEIN / URIC ACID: tissue Plasma
[1] = 0 mg/kg, 72 h, dose level Control, time 3 day
[2] = 0 mg/kg, 120 h, dose level Control, time 5 day
[3] = 1 mg/kg, 72 h, dose level Low, time 3 day

O=C(O)COC(=O)Cc1ccccc1Nc1c(Cl)cccc1Cl [ACECLOFENAC]
ABSOLUTE BASOPHIL [1]: 0 CELLS/uL | ABSOLUTE EOSINOPHIL [1]: 0 CELLS/uL | ABSOLUTE LYMPHOCYTE [1]: 9244.83 CELLS/uL | ABSOLUTE MONOCYTE [1]: 102 CELLS/uL | ABSOLUTE SEGMENTED NEUTROPHIL [1]: 869.83 CELLS/uL | BASOPHIL [1]: 0% | EOSINOPHIL [1]: 0% | ERYTHROCYTE COUNT [1]: 5.43 x10E6/uL | HEMATOCRIT [1]: 34.03% | HEMOGLOBIN [1]: 13.27 G/DL | LEUKOCYTE COUNT [1]: 10.22 x10E3/uL | LYMPHOCYTE [1]: 90.33% | MEAN CORPUSCULAR HEMOGLOBIN [1]: 24.48 pg | MEAN CORPUSCULAR HEMOGLOBIN CONCENTRATION [1]: 39.03 G/DL | MEAN CORPUSCULAR VOLUME [1]: 62.75 fL | MONOCYTE [1]: 1% | NEUTROPHIL [1]: 8.67% | NUCLEATED RED BLOOD CELLS [1]: 0.17 /100WBC | PLATELET COUNT [1]: 989 x10E3/uL | ALANINE AMINOTRANSFERASE [1]: 77 u/L | ALBUMIN [1]: 3.97 G/DL | ALKALINE PHOSPHATASE [1]: 464.83 u/L | ASPARTATE AMINOTRANSFERASE [1]: 89.83 u/L | BLOOD UREA NITROGEN [1]: 12.17 mg/dL | CARBON DIOXIDE [1]: 34.17 mmol/L | CHLORIDE [1]: 98.33 MEQ/L | CHOLESTEROL [1]: 75.17 mg/dL | CREATINE PHOSPHOKINASE [1]: 367.67 u/L | CREATININE [1]: 0.16 mg/dL | GLUCOSE [1]: 142.67 mg/dL | LACTATE DEHYDROGENASE [1]: 139.33 u/L | LIPASE [1]: 9.5 u/L | PHOSPHORUS [1]: 10.85 mg/dL | POTASSIUM [1]: 6.38 MEQ/L | SODIUM [1]: 143.2 MEQ/L | TOTAL BILIRUBIN [1]: 0.2 mg/dL | TOTAL PROTEIN [1]: 5.77 G/DL | URIC ACID [1]: 0.7 mg/dL | ABSOLUTE BASOPHIL [2]: 0 CELLS/uL | ABSOLUTE EOSINOPHIL [2]: 0 CELLS/uL | ABSOLUTE LYMPHOCYTE [2]: 8295.33 CELLS/uL | ABSOLUTE MONOCYTE [2]: 84.67 CELLS/uL | ABSOLUTE SEGMENTED NEUTROPHIL [2]: 970 CELLS/uL | BASOPHIL [2]: 0% | EOSINOPHIL [2]: 0% | ERYTHROCYTE COUNT [2]: 5.74 x10E6/uL | HEMATOCRIT [2]: 36.22% | HEMOGLOBIN [2]: 13.85 G/DL | LEUKOCYTE COUNT [2]: 9.35 x10E3/uL | LYMPHOCYTE [2]: 88.67% | MEAN CORPUSCULAR HEMOGLOBIN [2]: 24.13 pg | MEAN CORPUSCULAR HEMOGLOBIN CONCENTRATION [2]: 38.25 G/DL | MEAN CORPUSCULAR VOLUME [2]: 63.08 fL | MONOCYTE [2]: 1% | NEUTROPHIL [2]: 10.33% | NUCLEATED RED BLOOD CELLS [2]: 0.17 /100WBC | PLATELET COUNT [2]: 883.83 x10E3/uL | ALANINE AMINOTRANSFERASE [2]: 64.5 u/L | ALBUMIN [2]: 4.12 G/DL | ALKALINE PHOSPHATASE [2]: 425.67 u/L | ASPARTATE AMINOTRANSFERASE [2]: 88.5 u/L | BLOOD UREA NITROGEN [2]: 14.17 mg/dL | CARBON DIOXIDE [2]: 30.5 mmol/L | CHLORIDE [2]: 100.33 MEQ/L | CHOLESTEROL [2]: 55.33 mg/dL | CREATINE PHOSPHOKINASE [2]: 287.17 u/L | CREATININE [2]: 0.2 mg/dL | GLUCOSE [2]: 162.83 mg/dL | LACTATE DEHYDROGENASE [2]: 111.33 u/L | LIPASE [2]: 10.5 u/L | PHOSPHORUS [2]: 10.32 mg/dL | POTASSIUM [2]: 5.13 MEQ/L | SODIUM [2]: 143.93 MEQ/L | TOTAL BILIRUBIN [2]: 0.17 mg/dL | TOTAL PROTEIN [2]: 5.9 G/DL | URIC ACID [2]: 0.77 mg/dL | ABSOLUTE BASOPHIL [3]: 0 CELLS/uL | ABSOLUTE EOSINOPHIL [3]: 34 CELLS/uL | ABSOLUTE LYMPHOCYTE [3]: 11265.67 CELLS/uL | ABSOLUTE MONOCYTE [3]: 0 CELLS/uL | ABSOLUTE SEGMENTED NEUTROPHIL [3]: 933.67 CELLS/uL | BASOPHIL [3]: 0% | EOSINOPHIL [3]: 0.33% | ERYTHROCYTE COUNT [3]: 5.17 x10E6/uL | HEMATOCRIT [3]: 32.3% | HEMOGLOBIN [3]: 12.7 G/DL | LEUKOCYTE COUNT [3]: 12.23 x10E3/uL | LYMPHOCYTE [3]: 92.33% | MEAN CORPUSCULAR HEMOGLOBIN [3]: 24.6 pg | MEAN CORPUSCULAR HEMOGLOBIN CONCENTRATION [3]: 39.37 G/DL | MEAN CORPUSCULAR VOLUME [3]: 62.53 fL | MONOCYTE [3]: 0% | NEUTROPHIL [3]: 7.33% | NUCLEATED RED BLOOD CELLS [3]: 0 /100WBC | PLATELET COUNT [3]: 1096 x10E3/uL | ALANINE AMINOTRANSFERASE [3]: 63.33 u/L | ALBUMIN [3]: 4.13 G/DL | ALKALINE PHOSPHATASE [3]: 435.67 u/L | ASPARTATE AMINOTRANSFERASE [3]: 81.67 u/L | BLOOD UREA NITROGEN [3]: 12.33 mg/dL | CARBON DIOXIDE [3]: 33 mmol/L | CHLORIDE [3]: 98 MEQ/L | CHOLESTEROL [3]: 77.33 mg/dL | CREATINE PHOSPHOKINASE [3]: 224.33 u/L | CREATININE [3]: 0.13 mg/dL | GLUCOSE [3]: 132.33 mg/dL | LACTATE DEHYDROGENASE [3]: 137.33 u/L | LIPASE [3]: 9.67 u/L | PHOSPHORUS [3]: 11.77 mg/dL | POTASSIUM [3]: 6.44 MEQ/L | SODIUM [3]: 143.43 MEQ/L | TOTAL BILIRUBIN [3]: 0.2 mg/dL | TOTAL PROTEIN [3]: 5.9 G/DL | URIC ACID [3]: 0.77 mg/dL
